Results reported in the supplement of paper PMC13380429.
± gives the standard deviation of the averaged measurements.

Columns and labels:
Details in all cases: 72 h
Calu-3 [1] = assay: drug sensitivity score (DSS) for viability; higher = more toxic; extreme values may be limits of the assay
Vero E6 [2] = assay: as above
U2OS [3] = assay: as above
HepG2 [4] = assay: as above
Caco-2 [5] = assay: as above
Calu-3 [6] = assay: cell viability relative to DMSO; higher = less toxic
Vero E6 [7] = assay: as above
U2OS [8] = assay: as above
HepG2 [9] = assay: as above
Caco-2 [10] = assay: as above
Calu-3 [11] = assay: relative viability EC50 (midpoint between 100% and the lowest measured viability); higher = less toxic
Vero E6 [12] = assay: as above
U2OS [13] = assay: as above
HepG2 [14] = assay: as above
Caco-2 [15] = assay: as above

Row | Structure (SMILES) | drug sensitivity score (Calu-3 [1]) | drug sensitivity score (Vero E6 [2]) | drug sensitivity score (U2OS [3]) | drug sensitivity score (HepG2 [4]) | drug sensitivity score (Caco-2 [5]) | cell viability (Calu-3 [6]; 1 nM) [%] | cell viability (Calu-3 [6]; 10 nM) [%] | cell viability (Calu-3 [6]; 100 nM) [%] | cell viability (Calu-3 [6]; 1000 nM) [%] | cell viability (Calu-3 [6]; 10000 nM) [%] | cell viability (Vero E6 [7]; 1 nM) [%] | cell viability (Vero E6 [7]; 10 nM) [%] | cell viability (Vero E6 [7]; 100 nM) [%] | cell viability (Vero E6 [7]; 1000 nM) [%] | cell viability (Vero E6 [7]; 10000 nM) [%] | cell viability (U2OS [8]; 1 nM) [%] | cell viability (U2OS [8]; 10 nM) [%] | cell viability (U2OS [8]; 100 nM) [%] | cell viability (U2OS [8]; 1000 nM) [%] | cell viability (U2OS [8]; 10000 nM) [%] | cell viability (HepG2 [9]; 1 nM) [%] | cell viability (HepG2 [9]; 10 nM) [%] | cell viability (HepG2 [9]; 100 nM) [%] | cell viability (HepG2 [9]; 1000 nM) [%] | cell viability (HepG2 [9]; 10000 nM) [%] | cell viability (Caco-2 [10]; 1 nM) [%] | cell viability (Caco-2 [10]; 10 nM) [%] | cell viability (Caco-2 [10]; 100 nM) [%] | cell viability (Caco-2 [10]; 1000 nM) [%] | cell viability (Caco-2 [10]; 10000 nM) [%] | relative viability EC50 (Calu-3 [11]) [µM] | relative viability EC50 (Vero E6 [12]) [µM] | relative viability EC50 (U2OS [13]) [µM] | relative viability EC50 (HepG2 [14]) [µM] | relative viability EC50 (Caco-2 [15]) [µM]
1 | CN[C@H]1C(=O)N[C@@H]2Cc3ccc(cc3)Oc3cc4cc(c3O[C@@H]3O[C@H](C(=O)O)[C@@H](O)[C@H](O)[C@H]3NC(=O)CCCCCCCCC(C)C)Oc3ccc(cc3Cl)[C@@H](O)[C@@H]3NC(=O)[C@H](NC(=O)[C@@H]4NC(=O)[C@@H](NC2=O)c2cc(cc(O)c2Cl)Oc2cc1ccc2O)c1ccc(O)c(c1)-c1c(O[C@H]2O[C@H](CO)[C@@H](O)[C@H](O)[C@@H]2O)cc(O)cc1[C@@H](C(=O)NCCCN(C)C)NC3=O [dalbavancin] | 0 | 0 | 0 | 0 | 0 | 95.2 | 102 | 95.2 | 103 | 95 | 111 | 114 | 109 | 87.3 | 102 | 99.1 | 100 | 96.9 | 98 | 95.8 | 88.7 | 94.3 | 118 | 91.4 | 116 | 89.3 | 106 | 92.6 | 111 | 90.1 | > 10 | > 10 | > 10 | > 10 | > 10
2 | CCCC(=O)O[C@]1(C(=O)COC(C)=O)CC[C@H]2[C@@H]3C[C@H](F)C4=CC(=O)C=C[C@]4(C)[C@@]3(F)[C@@H](O)C[C@@]21C [difluprednate] | 0 | 0 | 0 | 0 | 0 | 106 | 90.7 | 87.7 | 90.5 | 102 | 96.9 | 97 | 95.3 | 98.9 | 94.2 | 99.5 | 93.3 | 93.4 | 94.1 | 92.1 | 97.5 | 93.7 | 107 | 105 | 88.3 | 96.6 | 93.2 | 98.3 | 101 | 91.8 | > 10 | > 10 | > 10 | > 10 | > 10
3 | Cc1ccc2c(c1)[C@]13CCCC[C@@H]1[C@H](C2)N(C)CC3 [dimemorfan] | 0 | 0 | 0 | 0 | 0 | 89.1 | 95.5 | 89.1 | 89.2 | 98.7 | 101 | 103 | 104 | 98.7 | 106 | 96.8 | 102 | 95.7 | 101 | 93.7 | 105 | 103 | 99 | 95.3 | 101 | 93.5 | 96.5 | 94.6 | 103 | 91.8 | > 10 | > 10 | > 10 | > 10 | > 10
4 | Fc1ccc2nc(CCC#Cc3ccccn3)cn2c1 [dipraglurant] | 0.1 | 0 | 0 | 0 | 0 | 92.1 | 100 | 95.2 | 99.4 | 88 | 94.8 | 100 | 91.6 | 93.3 | 110 | 100 | 97.3 | 95.3 | 93.9 | 99.9 | 99.9 | 99.8 | 103 | 104 | 106 | 102 | 94.2 | 106 | 99.5 | 99.3 | > 10 | > 10 | > 10 | > 10 | > 10
5 | OCC(O)CN1CCN(c2ccccc2)CC1 (stereo not given) [dropropizine] | 0 | 0 | 0 | 0.1 ± 0.14 | 0 | 106 ± 1.6 | 97.85 ± 0.64 | 104 ± 4.5 | 99.6 ± 1.3 | 97.85 ± 0.21 | 96.6 ± 7.5 | 95.8 ± 1.5 | 94.2 ± 8.5 | 96.7 ± 6.7 | 103 ± 8.4 | 99.9 ± 5 | 97.3 ± 4.9 | 100.5 ± 0.49 | 97.7 ± 0.14 | 102.8 ± 0.35 | 94.8 ± 4.6 | 101 ± 4.9 | 102 ± 1.6 | 99.5 ± 3.2 | 88.9 ± 5.2 | 89.7 ± 5 | 85.2 ± 12 | 97.8 ± 2.9 | 91.9 ± 0.57 | 96.3 ± 9.9 | > 10 | > 10 | > 10 | > 10 | > 10
6 | CCN(CC)CCOc1ccccc1C(=O)CCc1ccccc1 [etafenone] | 0 | 0 | 0 | 0 | 0 | 96.9 | 99 | 106 | 108 | 101 | 93.2 | 93 | 101 | 91.8 | 102 | 94.8 | 101 | 97.9 | 103 | 103 | 98.6 | 90.6 | 106 | 94.7 | 94.3 | 93.3 | 104 | 94 | 103 | 100 | > 10 | > 10 | > 10 | > 10 | > 10
7 | CCOC(=O)c1ccccc1OC(N)=O [ethyl-2-(carbamoyloxy)benzoate] | 0 | 0 | 0 | 0 | 0 | 93.2 | 92.5 | 98 | 122 | 103 | 109 | 91.4 | 102 | 106 | 103 | 98.6 | 103 | 100 | 102 | 98.6 | 106 | 87.2 | 94.2 | 83.5 | 103 | 104 | 91.5 | 97.1 | 106 | 96.9 | > 10 | > 10 | > 10 | > 10 | > 10
8 | CC(C)=CCC/C(C)=C/CC/C(C)=C/CSc1ccccc1C(N)=O [farnesyl-thiosalicylic-acid-amide] | 0 | 0 | 0 | 0.1 | 0 | 106 | 92.4 | 108 | 105 | 111 | 89.8 | 101 | 92.8 | 87.1 | 99.7 | 98.9 | 100 | 105 | 98.3 | 102 | 100 | 105 | 96.6 | 108 | 85.7 | 104 | 116 | 95 | 116 | 104 | > 10 | > 10 | > 10 | > 10 | > 10
9 | COC(=O)/C=C/c1cccc(N(Cc2ccc(-c3ccc(N(C)C)cc3)cc2)C(=O)C2CCCCC2)c1 [fexaramine] | 0 | 0.1 | 0.1 | 0.3 | 1.3 | 110 | 95.4 | 104 | 96.5 | 92.3 | 107 | 103 | 99.4 | 98.3 | 88.8 | 103 | 97.5 | 99.9 | 97 | 88.5 | 105 | 104 | 97.4 | 101 | 83.5 | 104 | 99.9 | 104 | 92 | 81.1 | > 10 | > 10 | > 10 | > 10 | > 10
10 | Fc1ccc(C(c2ccc(F)cc2)N2CCN(C/C=C/c3ccccc3)CC2)cc1 [flunarizine] | 0 | 0 | 0.1 | 0.8 | 0.3 | 95.8 | 98.9 | 96.5 | 95.8 | 87.4 | 104 | 103 | 107 | 102 | 92.3 | 96.1 | 101 | 97.7 | 98.4 | 88.8 | 106 | 102 | 106 | 96.3 | 82.8 | 99.8 | 102 | 104 | 103 | 81.6 | > 10 | > 10 | > 10 | > 10 | > 10
11 | CC(=O)[C@@]1(O)CC[C@H]2[C@@H]3C[C@H](C)C4=CC(=O)C=C[C@]4(C)[C@@]3(F)[C@@H](O)C[C@@]21C [fluorometholone] | 0 | 0 | 0 | 0 | 0 | 93.2 | 98.3 | 94.1 | 92.5 | 87.9 | 105 | 101 | 102 | 97.5 | 101 | 96.4 | 97.9 | 91.1 | 97 | 92.3 | 96.3 | 96.7 | 101 | 90.8 | 96.9 | 94.1 | 96.2 | 96.4 | 99.7 | 124 | > 10 | > 10 | > 10 | > 10 | > 10
12 | COc1ccc(CC(C)NCC(O)c2ccc(O)c(NC=O)c2)cc1 (stereo not given) [formoterol] | 0.5 | 0 | 0 | 0 | 0 | 99.3 | 101 | 101 | 88.1 | 92.4 | 93.9 | 91.5 | 97.2 | 95.3 | 104 | 95.5 | 102 | 97.2 | 105 | 97.8 | 101 | 89.4 | 98.5 | 93.7 | 105 | 96 | 90.2 | 93.4 | 100 | 98.5 | > 10 | > 10 | > 10 | > 10 | > 10
